The values that follow come from patent US8530470B2, “Chromenone derivatives” (Astrazeneca AB, priority 2011, dated 2013).

One assay addresses PI3Kδ (Homo sapiens, UniProt O00329). Description: In vitro enzyme inhibition assay (Kinase Glo), PI3Kδ. The settings on record: Test (a). The assay is classed as biochemical. The method, then:
(§1) (a) In Vitro Enzyme Inhibition Assay
(§2) The inhibition of PI3Kβ, PI3Kα, PI3Kγ and PI3Kδ was evaluated in a Kinase Glo based enzyme activity assay using human recombinant enzymes. The assay measures depletion of ATP after incubation with enzyme, PIP2 and ATP plus compound. ATP at the end of the reaction is detected by addition of Kinase Glo reagent, in this the Ultra Glo™ luciferase (Promega) uses the ATP as a substrate to catalyze the mono-oxygenation of luciferin and the generation of light. A direct relationship exists between the luminescence measured with the Kinase-Glo Plus Reagent and the amount of ATP remaining in a completed kinase reaction and luminescence is inversely related to kinase activity. Twelve different compound concentrations were tested and raw data from the inhibition of PI3Kβ, PI3Kα, PI3Kγ and PI3Kδ was plotted versus inhibitor concentration.
(§3) Compounds in 100% DMSO were added to assay plates by acoustic dispensing. PI3β was added in a Tris buffer (50 mM Tris pH7.4, 0.05% CHAPS, 2.1 mM DTT, and 10 mM MgCl2) and allowed to preincubate with compound for 20 min prior to addition of substrate solution containing PIP2 and ATP. The enzyme reaction was stopped after 80 min by the addition of Kinase Glo detection solution. […] The final concentration of DMSO, ATP and PIP2 in the assay were, 1%, 8 μM, and 80 μM respectively.
(§4) IC50 values were calculated using a log curve fitting to a non-linear regression package, fitting raw data to inhibitor concentration.
(In general: Kinase-Glo reads ATP consumption through a luciferase reaction.)

Assay [1] relates to phosphoinositide (PI) 3-kinase. Description: Comparison of activity of enantiomers (PI 3-kinase inhibitory activity). The format is biochemical. The settings on record: (+) enantiomer of Example 1.03 compared with the other enantiomer. The text has this:
The synthesis of optically active forms may be carried out by standard techniques of organic chemistry well known in the art, for example by synthesis from optically active starting materials or by resolution of a racemic form. Similarly, the above-mentioned activity may be evaluated using the standard laboratory techniques.
For the avoidance of doubt, the chiral centre in question is the carbon atom at the 2-position of the central pyrrolidine ring that is linked to the chromenone bicyclic ring.

The target of another assay is PI3Kβ (Homo sapiens, UniProt P42338). Description: In vitro enzyme inhibition assay (Kinase Glo), PI3Kβ. The settings on record: Test (a). The format is biochemical. How it is done:
as §1, §2, §3, §4

The test system of assay [2] is phospho AKT (ser473) in MDA-MB-468 cells. Nature of the assay: Detection of phospho AKT (ser473) in MDA-MB-468 cells. The assay is classed as cell-based. The settings on record: Homo sapiens, Test (b), 2 hours incubation, approximate value, read-out: IC50 versus cellular phospho AKT (ser473) in MDA-MB-468 cells. The method, then:
(b) Protocol for Detection of Phospho AKT (ser473) in MDA-MB-468 Cells
MDA-MB-468 cells (human breast adenocarcinoma ATCC HTB 132) are seeded into Greiner 384 well black flat-bottomed plates by automated cell culture robot (Selec T). Cells can also be maintained manually and seeded into plates using multidrop or Wellmate. Cells seeded at 1500 cell/well in 40 μl of DMEN containing 10% FCS and 1% glutamine. Cell plates are incubated for 18 hours in a 37° C. incubator.
Compounds are dosed onto cells using an Echo acoustic dispenser, which dispenses nl quantities of compound or DMSO. Compounds are dosed in a 12 point concentration range from 30 μM top dose, 28 compounds are dosed on one plate. There are 17 DMSO only positive control wells per plate, and 16 negative control well which have been dosed with a concentration of reference compound that will knockout the pAKT signal.
Plates are incubated at 37° C. for 2 hours, cells are the fixed by the addition of 10 μl of a 3.7% Formaldehyde solution in a fume cupboard using a Wellmate.
After 30 min to allow for fixation, the fixative and media are removed and the plates washed with Proclin PBS/A using Tecan PW384 plate washer in a fume cupboard. Wells are blocked and permeabilised with the addition of 40 μl of PBS containing 0.5% Tween20 and 1% marvel using a Wellmate and incubated for 60 min at room temperature.
Permeabilisation and blocking buffer removed using Tecan PW384 plate washer, then 20 μl primary antibody solution added using a Wellmate. The primary antibody solution is a 1:500 dilution of Rabbit anti-phospho AKT Ser 473 (Cell signalling technologies catalogue number #3787) in PBS/T containing 1% marvel (dried milk powder) and incubated overnight at 4° C.
Plates are washed using a Tecan PW384 plate washer three times with Phosphate Buffered Saline+0.05% (v/v) Polysorbate20 and Proclin300 (Supelco). 20 μl of secondary antibody solution is then added to each well using a Wellmate and incubated for 1 hour at Room Temp. The secondary antibody solution is a 1:1000 dilution of Alexa Fluor 488 anti-Rabbit (Molecular Probes cat no A11008) diluted in Phosphate Buffered Saline+0.05% (v/v) Polysorbate20 containing 1% marvel. Plates are washed three times as before then […] added to each well and plates sealed with black plate sealer.
The plates are read on an Acumen reader as soon as possible. Using this system IC50 values can be generated and quality of plates determined by control wells. Reference compounds are run each time to monitor assay performance.

For assay [3], the system named is phospho AKT (ser473) in Jeko cells. Description: Detection of phospho AKT (ser473) in Jeko cells. The assay is classed as cell-based. The settings on record: Homo sapiens; Test (e); anti-IgM stimulated; approximate value; read-out: IC50 versus cellular phospho AKT (ser473) in Jeko cells. The method, then:
(e) Protocol for Detection of Phospho AKT (ser473) in Jeko Cells
Compounds at ×10 final concentration in 10 μl of 1% (v/v) DMSO are added to the wells of a Greiner V-bottomed 96 well plate. Compounds are dosed in a 10-point concentration range from 1 μM top dose, 8 compounds are dosed on one plate. There are 8 DMSO positive control wells per plate which have been dosed with vehicle and anti-IgM, and 8 negative control wells which have been dosed with vehicle and assay buffer. Final vehicle concentration is 0.1% DMSO. A reference PI3Kδ selective compound is included in each run. Jeko B cells (human mantle cell lymphoma, ATCC CRL-3006) are seeded into the Greiner 96 well V-bottomed plates containing compounds. Cells are seeded at 100,000 cell/well in 70 μl of RPMI containing 1% glutamine.
Cell plates are incubated for 1 hour in a 37° C. incubator. After this compound pre-incubation time, anti-IgM (F(ab′)2 fragment goat anti-human IgM, Stratech 109-006-129) is added to the plates at ×5 final concentration in 20 μl of assay buffer (RPMI containing 1% glutamine). Final anti-IgM concentration is 0.06 μg/ml or an equivalent EC90 dose. Plates are incubated at 37° C. for 10 min, subsequently plates are immediately placed on ice and centrifuged at […] for 4 min. On ice, supernatants are carefully removed with a manual pipette and 40 μl lysis buffer added. […]

[4] abbreviates: approximate value, read-out: IC50 versus PI3Kδ.
[5] abbreviates: approximate value, read-out: IC50 versus PI3Kβ.
Where [6] appears, read: human recombinant enzyme, Table A, read-out: PI3Kδ inhibition, IC50.
[7] abbreviates: human recombinant enzyme, ATP 8 μM, PIP2 80 μM, Table A, read-out: PI3Kβ inhibition, IC50.

Like-named read-outs stand apart in the source and are kept apart here.

Chain of PI3Kβ (P42338 whole entry): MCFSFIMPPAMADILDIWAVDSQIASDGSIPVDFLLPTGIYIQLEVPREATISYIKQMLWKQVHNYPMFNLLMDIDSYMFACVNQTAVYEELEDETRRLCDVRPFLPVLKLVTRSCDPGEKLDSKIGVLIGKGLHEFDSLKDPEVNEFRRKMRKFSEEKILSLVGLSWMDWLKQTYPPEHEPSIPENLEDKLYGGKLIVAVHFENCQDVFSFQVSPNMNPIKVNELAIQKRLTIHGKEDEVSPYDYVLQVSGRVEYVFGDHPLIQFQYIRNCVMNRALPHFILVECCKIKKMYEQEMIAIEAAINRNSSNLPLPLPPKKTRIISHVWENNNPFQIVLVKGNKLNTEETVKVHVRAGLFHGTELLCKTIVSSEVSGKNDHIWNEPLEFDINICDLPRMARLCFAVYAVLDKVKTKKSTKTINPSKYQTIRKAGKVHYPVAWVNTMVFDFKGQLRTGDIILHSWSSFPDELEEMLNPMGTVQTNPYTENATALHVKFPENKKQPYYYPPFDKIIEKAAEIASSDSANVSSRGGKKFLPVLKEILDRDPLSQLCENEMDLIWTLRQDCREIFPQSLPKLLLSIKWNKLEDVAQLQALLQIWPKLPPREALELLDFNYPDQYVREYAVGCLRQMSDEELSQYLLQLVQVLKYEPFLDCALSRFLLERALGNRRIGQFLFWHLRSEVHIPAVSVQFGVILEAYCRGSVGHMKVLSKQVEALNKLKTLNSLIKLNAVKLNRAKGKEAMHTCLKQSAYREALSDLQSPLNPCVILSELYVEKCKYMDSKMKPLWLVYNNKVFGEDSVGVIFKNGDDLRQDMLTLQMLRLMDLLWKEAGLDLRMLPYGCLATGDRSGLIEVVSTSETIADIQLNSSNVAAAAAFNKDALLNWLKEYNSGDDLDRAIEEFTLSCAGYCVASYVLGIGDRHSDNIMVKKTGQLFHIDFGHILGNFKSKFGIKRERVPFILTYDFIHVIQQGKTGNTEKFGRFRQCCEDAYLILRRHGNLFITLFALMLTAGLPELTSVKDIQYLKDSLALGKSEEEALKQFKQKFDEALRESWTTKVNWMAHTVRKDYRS
Chain of PI3Kβ (P27986 whole entry partner): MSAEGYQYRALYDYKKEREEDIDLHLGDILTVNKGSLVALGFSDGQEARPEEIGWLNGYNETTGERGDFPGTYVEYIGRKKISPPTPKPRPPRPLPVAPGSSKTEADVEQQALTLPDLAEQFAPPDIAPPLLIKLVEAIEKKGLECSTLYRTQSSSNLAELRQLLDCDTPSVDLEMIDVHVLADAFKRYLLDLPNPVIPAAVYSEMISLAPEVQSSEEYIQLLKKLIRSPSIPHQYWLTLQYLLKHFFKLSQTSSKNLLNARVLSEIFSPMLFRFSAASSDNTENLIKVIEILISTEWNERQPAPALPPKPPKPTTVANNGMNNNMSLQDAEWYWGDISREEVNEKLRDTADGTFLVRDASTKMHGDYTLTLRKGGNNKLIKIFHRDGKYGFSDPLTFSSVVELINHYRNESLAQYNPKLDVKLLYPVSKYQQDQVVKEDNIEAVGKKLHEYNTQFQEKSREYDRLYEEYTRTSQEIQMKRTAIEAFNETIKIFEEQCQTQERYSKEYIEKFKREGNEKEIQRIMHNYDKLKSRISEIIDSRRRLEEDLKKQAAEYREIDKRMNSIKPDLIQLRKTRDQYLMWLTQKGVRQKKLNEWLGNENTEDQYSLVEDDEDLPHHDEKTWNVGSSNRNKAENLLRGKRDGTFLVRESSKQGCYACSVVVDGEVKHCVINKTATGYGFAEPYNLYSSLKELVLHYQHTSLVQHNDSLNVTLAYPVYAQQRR
Chain of PI3Kδ (O00329 whole entry): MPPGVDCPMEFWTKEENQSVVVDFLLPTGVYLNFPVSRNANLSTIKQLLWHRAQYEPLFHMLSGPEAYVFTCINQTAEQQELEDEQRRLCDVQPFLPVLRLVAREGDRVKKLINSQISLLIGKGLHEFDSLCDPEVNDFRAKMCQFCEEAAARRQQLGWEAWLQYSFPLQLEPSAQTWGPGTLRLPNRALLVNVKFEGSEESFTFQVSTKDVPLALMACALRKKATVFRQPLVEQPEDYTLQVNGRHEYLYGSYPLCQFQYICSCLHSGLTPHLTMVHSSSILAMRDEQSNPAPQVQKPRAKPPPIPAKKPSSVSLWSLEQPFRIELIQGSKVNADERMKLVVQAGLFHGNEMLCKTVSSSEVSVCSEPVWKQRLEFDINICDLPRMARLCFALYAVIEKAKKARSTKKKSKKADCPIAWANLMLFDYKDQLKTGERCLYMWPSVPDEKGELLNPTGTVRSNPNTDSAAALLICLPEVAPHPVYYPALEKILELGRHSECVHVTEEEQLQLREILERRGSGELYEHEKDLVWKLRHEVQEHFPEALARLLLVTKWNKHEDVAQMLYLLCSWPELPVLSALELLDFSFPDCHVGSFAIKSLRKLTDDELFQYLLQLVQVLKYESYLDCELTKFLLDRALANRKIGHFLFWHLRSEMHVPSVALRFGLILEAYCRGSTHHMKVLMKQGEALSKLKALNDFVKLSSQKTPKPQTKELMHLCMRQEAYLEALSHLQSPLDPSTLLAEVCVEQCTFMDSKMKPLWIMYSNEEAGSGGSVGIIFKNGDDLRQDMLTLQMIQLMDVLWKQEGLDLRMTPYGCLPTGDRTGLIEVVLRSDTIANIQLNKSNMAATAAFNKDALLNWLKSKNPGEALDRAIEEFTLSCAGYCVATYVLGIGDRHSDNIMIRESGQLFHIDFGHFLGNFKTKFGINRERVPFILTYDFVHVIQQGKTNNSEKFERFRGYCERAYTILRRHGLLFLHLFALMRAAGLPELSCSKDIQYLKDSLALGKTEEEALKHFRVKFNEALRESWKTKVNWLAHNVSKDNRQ
Chain of PI3Kδ (P27986 whole entry partner): as the sequence (P27986 whole entry partner) above

The term IC50 denotes the concentration at which inhibition is half-maximal. For `O=C(c1cc([C@@H]2CCCN2c2cc(F)cc(F)c2)c2oc(N3CCOCC3)cc(=O)c2c1)N1CCOCC1` [Example 1.03a, 8-[(2S)-1-(3,5-difluorophenyl)pyrrolidin-2-yl]-6-(morpholine-4-carbonyl)-2-morpholino-4H-chromen-4-one], the concentration for half-maximal inhibition (IC50) on PI3Kδ (setting [4]) was approximately 282 nM; on PI3Kβ (setting [5]) it was approximately 198 nM; in assay [2], approximately 27 nM. For the same compound, in assay [1], the “activity relative to the other enantiomer” value is “weaker activity”.
With `O=C(c1cc([C@H]2CCCN2c2cc(F)cc(F)c2)c2oc(N3CCOCC3)cc(=O)c2c1)N1CCOCC1` [Example 1.03b, 8-[(2R)-1-(3,5-difluorophenyl)pyrrolidin-2-yl]-6-(morpholine-4-carbonyl)-2-morpholino-chromen-4-one], the half-inhibitory concentration (IC50) is approximately 9 nM on PI3Kδ (setting [4]); 9 nM at PI3Kδ (setting [6]); approximately 7 nM on PI3Kβ (setting [5]); 7 nM at PI3Kβ (setting [7]); approximately 1 nM in assay [2]; approximately 7 nM in assay [3].
Regarding `C[C@@H]1CN(c2cc(=O)c3cc(C(=O)N4CCOCC4)cc(C4CCCN4c4cc(F)cc(F)c4)c3o2)CCO1` (stereo partly drawn) [Example 3.00, 8-(1-(3,5-difluorophenyl)pyrrolidin-2-yl)-2-((R)-2-methylmorpholino)-6-(morpholine-4-carbonyl)-4H-chromen-4-one], the IC50 was approximately 18 nM on PI3Kδ (setting [4]); 18 nM on PI3Kδ (setting [6]); approximately 11 nM at PI3Kβ (setting [5]); 11 nM on PI3Kβ (setting [7]); approximately 3 nM in assay [2].
With `C[C@@H]1CN(c2cc(=O)c3cc(C(=O)N4CCOCC4)cc(C4CCCN4c4ccccc4)c3o2)CCO1` (stereo partly drawn) [Example 3.01, 2-((R)-2-methylmorpholino)-6-(morpholine-4-carbonyl)-8-(1-phenylpyrrolidin-2-yl)-4H-chromen-4-one], the results for the IC50 (at PI3Kδ (setting [6]); at PI3Kβ (setting [7]); in assay [2]) were 15 nM, 14 nM and approximately 6 nM, respectively.
As to `C[C@@H]1CN(c2cc(=O)c3cc(C(=O)N4CCOCC4)cc(C4CCCN4c4cccc(F)c4)c3o2)CCO1` (stereo partly drawn) [Example 3.02, 8-(1-(3-fluorophenyl)pyrrolidin-2-yl)-2-((R)-2-methylmorpholino)-6-(morpholine-4-carbonyl)-4H-chromen-4-one], the IC50 on PI3Kδ (setting [4]) was approximately 10 nM; on PI3Kδ (setting [6]) it was 10 nM; on PI3Kβ (setting [5]), approximately 14 nM; at PI3Kβ (setting [7]), 14 nM; in assay [2], approximately 3 nM.
In the case of `C[C@@H]1CN(c2cc(=O)c3cc(C(=O)N(C)C)cc(C4CCCN4c4cccc(F)c4)c3o2)CCO1` (stereo partly drawn) [Example 3.03, 8-(1-(3-fluorophenyl)pyrrolidin-2-yl)-N,N-dimethyl-2-((R)-2-methylmorpholino)-4-oxo-4H-chromene-6-carboxamide], the IC50 was approximately 7 nM on PI3Kδ (setting [4]); 7 nM at PI3Kδ (setting [6]); approximately 10 nM on PI3Kβ (setting [5]); 10 nM on PI3Kβ (setting [7]); approximately 1 nM in assay [2].
